# Experimental data taken from ChEMBL document CHEMBL4840300 (J Nat Prod, 2021).
# Legend:
# [1] = Cytotoxicity against human HaCaT cells assessed as cell viability at 1 to 10 uM incubated for 24 hrs followed by H2O2 stimulation by celltiter-glo assay relative to control; format: cell-based; conditions: dose 1-10 µM, read-out: Activity
# HaCaT [2] = experiment: Cytoprotective activity against H2O2-induced oxidative stress in human HaCaT cells assessed as increase in cell viability at 10 uM incubated for 24 hrs followed by H2O2 stimulation by celltiter-glo assay relative to control; format: functional
# HaCaT [3] = experiment: Effect on cell cycle distribution in human HaCaT cells assessed as <2N cells at 10 uM pretreated for 6 hrs followed by H2O2 challenge for 24 hrs by propidium iodide staining based flow cytometry analysis (Rvb= 1.88%); format: functional; conditions: time 30 hrs
# HaCaT [4] = experiment: Effect on cell cycle distribution in human HaCaT cells assessed as 2N cells at 10 uM pretreated for 6 hrs followed by H2O2 challenge for 24 hrs by propidium iodide staining based flow cytometry analysis (Rvb= 17.9%); format: functional; conditions: time 30 hrs
# HaCaT [5] = experiment: Effect on cell cycle distribution in human HaCaT cells assessed as 4N cells at 10 uM pretreated for 6 hrs followed by H2O2 challenge for 24 hrs by propidium iodide staining based flow cytometry analysis (Rvb= 41.0%); format: functional; conditions: time 30 hrs
# HaCaT [6] = experiment: Effect on cell cycle distribution in human HaCaT cells assessed as >4N cells at 10 uMpretreated for 6 hrs followed by H2O2 challenge for 24 hrs by propidium iodide staining based flow cytometry analysis (Rvb= 11.1%); format: functional; conditions: dose 10 µM; time 30 hrs
# HaCaT [7] = experiment: Effect on cell cycle distribution in human HaCaT cells assessed as accumulation of cells in G2-M phase at 10 uM pretreated for 6 hrs followed by H2O2 challenge for 24 hrs by propidium iodide staining based flow cytometry analysis relative to control; format: functional; conditions: time 30 hrs
# HaCaT [8] = experiment: Cytoprotective activity against H2O2-induced oxidative stress in human HaCaT cells assessed as change in cellular ROS level at 1 uM incubated for 6 hrs followed by H2O2 stimulation measured after 24 hrs by DCF-DA dye based fluorescence analysis (reference value: 8.2); format: functional; conditions: time 30 hrs
# HaCaT [9] = experiment: Cytoprotective activity against H2O2-induced oxidative stress in human HaCaT cells assessed as change in cellular ROS level at 10 uM incubated for 6 hrs followed by H2O2 stimulation measured after 24 hrs by DCF-DA dye based fluorescence analysis (reference value: 8.2); format: functional; conditions: time 30 hrs
# HaCaT [10] = experiment: Antioxidant activity in human HaCaT cells assessed as reduction in mean fluorescence intensity at 10 uM preincubated for 6 hrs followed by H2O2 stimulation at 200 uM measured after 24 hrs by cellROS staining based flow cytometry analysis; format: functional; conditions: time 30 hrs
# HaCaT [11] = experiment: Antioxidant activity in human HaCaT cells assessed as reduction in mean fluorescence intensity at 10 uM preincubated for 6 hrs followed by H2O2 stimulation at 400 uM measured after 24 hrs by cellROS staining based flow cytometry analysis; format: functional; conditions: time 30 hrs
# HaCaT [12] = experiment: Antioxidant activity in human HaCaT cells assessed as reduction in mean fluorescence intensity at 10 uM preincubated for 6 hrs followed by H2O2 stimulation at 600 uM measured after 24 hrs by cellROS staining based flow cytometry analysis; format: functional; conditions: time 30 hrs
# HaCaT [13] = experiment: Antioxidant activity in human HaCaT cells assessed as reduction in mitochondria-derived ROS production by measuring mean fluorescence intensity at 10 uM preincubated for 6 hrs followed by H2O2 stimulation at 200 uM measured after 24 hrs by mitoSOX staining based flow cytometry analysis; format: functional; conditions: time 30 hrs
# HaCaT [14] = experiment: Antioxidant activity in human HaCaT cells assessed as reduction in mitochondria-derived ROS production by measuring mean fluorescence intensity at 10 uM preincubated for 6 hrs followed by H2O2 stimulation at 400 uM measured after 24 hrs by mitoSOX staining based flow cytometry analysis; format: functional; conditions: time 30 hrs
# HaCaT [15] = experiment: Antioxidant activity in human HaCaT cells assessed as reduction in mitochondria-derived ROS production by measuring mean fluorescence intensity at 10 uM preincubated for 6 hrs followed by H2O2 stimulation at 600 uM measured after 24 hrs by mitoSOX staining based flow cytometry analysis; format: functional; conditions: time 30 hrs
# [16] = Downregulation of caspase-1 mRNA expression in H2O2- stimulated human HaCaT cells at 10 uM incubated for 6 hrs by SPE based fluorescence amplification assay relative to control; format: functional; conditions: time 30 hrs
# [17] = Downregulation of IL-1beta mRNA expression in H2O2- stimulated human HaCaT cells at 10 uM incubated for 6 hrs by SPE based fluorescence amplification assay relative to control; format: functional; conditions: time 30 hrs
# Caspase-1 (Homo sapiens) [18] = target: T1, Caspase-1 (Homo sapiens) (UniProt P29466); experiment: Inhibition of caspase-1 activity in H2O2-stimulated human HaCaT cells assessed as reduction in enzyme activity at 10 uM using […] as a substrate measured after 2 hrs by colorimetric assay relative to control
# T1 sequence (whole entry): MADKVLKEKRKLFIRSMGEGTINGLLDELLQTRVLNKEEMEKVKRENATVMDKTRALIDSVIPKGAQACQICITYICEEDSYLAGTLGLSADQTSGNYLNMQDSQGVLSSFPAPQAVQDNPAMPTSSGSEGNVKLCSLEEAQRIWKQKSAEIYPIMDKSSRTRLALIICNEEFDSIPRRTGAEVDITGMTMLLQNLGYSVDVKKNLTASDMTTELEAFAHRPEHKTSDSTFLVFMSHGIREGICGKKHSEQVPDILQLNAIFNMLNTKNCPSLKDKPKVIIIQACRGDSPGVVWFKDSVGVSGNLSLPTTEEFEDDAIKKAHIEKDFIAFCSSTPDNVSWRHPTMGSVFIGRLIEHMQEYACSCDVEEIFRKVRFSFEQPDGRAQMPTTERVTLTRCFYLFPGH
# [19] = Inhibition of IL-1beta expression in H2O2- stimulated human HaCaT cells at 10 uM incubated for 6 hrs followed by H2O2 stimulation measured after 24 hrs by ELISA relative to control; format: functional; conditions: time 30 hrs
# HaCaT [20] = experiment: Anti-pyroptosis activity in human HaCaT cells assessed as reduction in H2O2-induced LDH production at 1 uM incubated for 6 hrs followed by H2O2 stimulation measured after 24 hrs by LDH assay relative to control; format: functional; design: scale not given: the % may be the effect or the level left; conditions: time 30 hrs
# HaCaT [21] = experiment: Anti-pyroptosis activity in human HaCaT cells assessed as reduction in H2O2-induced LDH production at 10 uM incubated for 6 hrs followed by H2O2 stimulation measured after 24 hrs by LDH assay relative to control; format: functional; design: scale not given: the % may be the effect or the level left; conditions: time 30 hrs
# HaCaT [22] = experiment: Antiapoptotic activity in human HaCaT cells assessed as reduction in apoptotic cells at 10 uM incubated for 6 hrs followed by H2O2 stimulation measured after 24 hrs by Mitotracker red/annexin V double staining based flow cytometry analysis (Rvb= 12.1%); format: functional; design: scale not given: the % may be the effect or the level left; conditions: time 30 hrs
# Caspase-1 [23] = target: T2, Caspase-1 (Homo sapiens, UniProt P29466); experiment: Binding affinity to recombinant human caspase-1 assessed as dissociation constant measured after 90 sec by SPR method
# T2 sequence (P29466 whole entry): T1 sequence (whole entry)
# Caspase-1 (Homo sapiens) [24] = target: T1, Caspase-1 (Homo sapiens); experiment: Binding affinity to recombinant human caspase-1 assessed as association constant measured after 60 sec by SPR method
# Caspase-1 [25] = target: T2, Caspase-1; experiment: Binding affinity to recombinant human caspase-1 assessed as dissociation constant at equilibrium measured after 30 sec by SPR method
structure (smiles),measurement,setting,value
C=C(C)[C@@H]1CCC(C)=C[C@H]1c1c(O)cc(CCCCC)cc1O [CANNABIDIOL],"viability at 24 h, up to 10 µM",[1],> 90%
same,Activity,HaCaT [2],48.6%
same,Activity,HaCaT [3],1.81%
same,Activity,HaCaT [4],20.5%
same,Activity,HaCaT [5],45.9%
same,Activity,HaCaT [6],4.55%
same,Activity,HaCaT [7],16.7%
same,fold change (FC),HaCaT [8],3.96
same,fold change (FC),HaCaT [9],5.13
same,Flu intensity,HaCaT [10],110
same,Flu intensity,HaCaT [11],96
same,Flu intensity,HaCaT [12],171
same,Flu intensity,HaCaT [13],75
same,Flu intensity,HaCaT [14],78
same,Flu intensity,HaCaT [15],73
same,Activity,[16],32.9%
same,Activity,[17],50.9%
same,inhibition,Caspase-1 (Homo sapiens) [18],15.7%
same,inhibition at 10 µM,[19],16.2%
same,Activity,HaCaT [20],20.7%
same,Activity,HaCaT [21],23.6%
same,Activity,HaCaT [22],6.36%
same,Kd,Caspase-1 [23],18.8 nM
same,Ka,Caspase-1 (Homo sapiens) [24],416 M⁻¹ s⁻¹
same,Kd,Caspase-1 [25],0.078 s⁻¹
